Results reported in PMC10957239 (Carbohydrate research, 2024).

Molecular target: T1, rhDectin-2 (Homo sapiens, UniProt Q6EIG7)
T1 sequence (Q6EIG7 42-209 limits assumed): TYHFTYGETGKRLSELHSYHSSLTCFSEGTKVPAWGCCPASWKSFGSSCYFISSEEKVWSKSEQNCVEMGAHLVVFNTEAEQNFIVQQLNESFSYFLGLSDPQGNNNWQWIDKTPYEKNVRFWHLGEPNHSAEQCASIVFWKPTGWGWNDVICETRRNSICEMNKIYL
Assay: biolayer interferometry
Type: binding

**Q.** How did the Kd turn out when `C=CCO[C@H]1O[C@H](CO)[C@@H](OP(=O)(O)O[C@H]2O[C@H](CO)[C@@H](O)[C@H](O)[C@@H]2O)[C@H](O)[C@@H]1O` [compound 7, Allyl α-D-mannopyranoside α-D-mannopyranosyl-4-sodium phosphate] was run?
**A.** 13.6 µM
